How the values were obtained:
[1] = tested on: HCT116 colon cancer cells; test: hexoseaminidase cell proliferation assay, HCT116; type: cell-based; conditions: Homo sapiens, HCT-116
Description: (§1) Using hexoseaminidase assay, we determined the effect of the compounds on cell proliferation. […]
(§2) Using hexoseaminidase assay, we determined the effect of the compounds on cell proliferation. […] […] […] Overall, the analogs can be used as chemotherapeutic agents against colon and pancreatic cancer.

SW480 colon cancer cells = test: hexoseaminidase cell proliferation assay, SW480; type: cell-based; conditions: Homo sapiens
Description: as §1, §2

[2] = tested on: MiaPaCa-2 pancreatic cancer cells; test: hexoseaminidase cell proliferation assay, MiaPaCa-2; type: cell-based; conditions: Homo sapiens, MIA PaCa-2
Experimental: (§3) Using hexoseaminidase assay, we determined the effect of the compounds on cell proliferation. […] The IC50 value at 48 hours is below 10 μM in all the cancer cell lines.
(§4) Using hexoseaminidase assay, we determined the effect of the compounds on cell proliferation. […] The MRL16 IC50 value at 48 hours is below 0.3 μM in Colon cancer cell lines. […] Overall, the analogs can be used as chemotherapeutic agents against colon and pancreatic cancer.

[3] = tested on: PanC-1 pancreatic cancer cells; test: hexoseaminidase cell proliferation assay, PanC-1; type: cell-based; conditions: Homo sapiens
Experimental: as §3, §4

HCT116 cells [4] = test: cell cycle analysis, HCT116; type: cell-based; conditions: for cell cycle effect (in words): HCT116 cells
SW480 cells [5] = test: cell cycle analysis, SW480; type: cell-based
Experimental: The analogs were tested to determine the ability induce death of colon cancer cells.

[6] = tested on: colon, pancreatic and bladder cancer cells; test: hexoseaminidase cell proliferation assay, summaries over cell lines; type: cell-based; conditions: for inhibition of cell proliferation (in words): dose and time dependent
Experimental: Water solubility studies were performed with the CD/analog complexes. […] The observed IC50 value of THBCD at 48 h is below 10 μM in all the colon, pancreatic and bladder cancer cells.
as §3, §4

HCT116 cells [7] = test: colony formation, HCT116; type: cell-based
HCT116 cells [8] = test: colonosphere formation, HCT116; type: cell-based
Description: These compounds may be preferred in some instances.

[9] = tested on: HCT116 colon cancer tumor xenografts; test: HCT116 colon cancer tumor xenografts in nude mice; type: in vivo
Experimental: For in vivo, HCT116 cells were injected into the blanks of nude mice, after one week when there was a palpable tumor and these compounds were injected intraperitonially (5 mg/kg body weight) every day for 21 days. Tumor volumes were measured weekly. On 29th day mice were euthanized and the tumors were removed and weighed for use in histology, immunohistochemistry, and gene expression studies. Both THB and THBCD inhibited growth of the tumor. It is noted that the images of FIG. 4C are from left to right: control; THB; and THBCD.
For in vivo, HCT116 cells were injected into the blanks of nude mice, after one week when there was a palpable tumor and these compounds were injected intraperitonially (5 mg/kg body weight) every day for 21 days. Tumor volumes were measured weekly. On 29th day mice were euthanized and the tumors were removed and weighed for use in histology, immunohistochemistry, and gene expression studies. DBQ inhibited the growth of the tumor. It is noted that the images of FIG. 16C are from left to right: control; and DBQ.
FIGS. 19A and 19B show MRL 16 inhibits tumor growth, such as on colon cancer tumor xenografts. For in vivo, HCT116 cells were injected into the blanks of nude mice, after one week when there was a palpable tumor and these compounds were injected intraperitonially (2 mg/kg body weight) every day for 21 days. Tumor volumes were measured weekly. On 29th day mice were euthanized and the tumors were removed and weighed. MRL16 inhibited growth of the tumor.

KU7 bladder cancer cells = test: hexoseaminidase cell proliferation assay, KU7; type: cell-based
Experimental: as §3

[10] = tested on: 253JBV bladder cancer cells; test: hexoseaminidase cell proliferation assay, 253JBV; type: cell-based
Experimental: as §3

SW480 cells [11] = test: colony formation, SW480; type: cell-based
MiaPaCa-2 cells = test: colony formation, MiaPaCa-2; type: cell-based
PanC-1 cells = test: colony formation, PanC-1; type: cell-based
cancer stem cells = test: colonosphere formation; type: cell-based
Experimental: It was also determined the analogs inhibit colonosphere formation from cancer stem cells. […] The columns are 0, 10, 25, and 50 micromolar concentrations of the compounds labeled by rows.
The effect of the compounds on colonosphere formation was determined. […] Overall, the analogs have shown they can be used as chemotherapeutic agents against colon, pancreatic and bladder cancer.

[12] = tested on: transcription factor NF-κB; conditions: previous studies, Cancer Res. 2008; cited from earlier work
[13] = intraperitoneal 2 mg/kg body weight every day for 21 days
[14] = intraperitoneal 5 mg/kg body weight every day for 21 days

Row | SMILES | IC50 ([1]; HCT116, 24 h) | IC50 ([1]; HCT116, 48 h) | IC50 ([1]; HCT116, 72 h) | IC50 (SW480 colon cancer cells; SW480, 24 h) | IC50 (SW480 colon cancer cells; SW480, 48 h) | IC50 (SW480 colon cancer cells; SW480, 72 h) | IC50 ([2]; MiaPaCa-2, 24 h) | IC50 ([2]; MiaPaCa-2, 48 h) | IC50 ([2]; MiaPaCa-2, 72 h) | IC50 ([3]; PANC-1, 24 h) | IC50 ([3]; PANC-1, 48 h) | IC50 ([3]; PANC-1, 72 h) | G0/G1 (%) (HCT116 cells [4]; HCT116, 24 h) | G2/M (%) (HCT116 cells [4]; HCT116, 24 h) | S (%) (HCT116 cells [4]; HCT116, 24 h) | SubG0 Dead Cells (%) (HCT116 cells [4]; HCT116, 24 h) | G0/G1 (%) (HCT116 cells [4]; HCT116, 48 h) | G2/M (%) (HCT116 cells [4]; HCT116, 48 h) | inhibition of cell proliferation (in words) [6] | colony formation (HCT116 cells [7]) | other results
1 | C/C(=N\NC(=O)c1cccnc1)c1ccc2ccccc2c1O [MRL17] | > 2 µM | 1 µM | 0.8 µM | > 2 µM | 1 µM | 0.6 µM | > 10 µM | > 10 µM | 5 µM | > 10 µM | 3 µM | 1 µM | 63.9% | 20.9% | 14.0% | 0.99% | 63.1% | 20.8% | potent inhibitor | inhibit colony formation | S (%) (HCT116 cells [4]; HCT116, 48 h): 14.3%; SubG0 Dead Cells (%) (HCT116 cells [4]; HCT116, 48 h): 1.57%; cell cycle effect (in words) (HCT116 cells [4]): induces G2/M arrest; G0/G1 (%) (SW480 cells [5]; SW480, 24 h): 54.9%; G2M/ (%) (SW480 cells [5]; SW480, 24 h): 22.0%; S (%) (SW480 cells [5]; SW480, 24 h): 22.3%; SubG0 Dead Cells (%) (SW480 cells [5]; SW480, 24 h): 0.50%; cell cycle effect (in words) (SW480 cells [5]; SW480, 24 h): induces G1 arrest; G0/G1 (%) (SW480 cells [5]; SW480, 48 h): 59.3%; G2M/ (%) (SW480 cells [5]; SW480, 48 h): 18.3%; S (%) (SW480 cells [5]; SW480, 48 h): 20.8%; SubG0 Dead Cells (%) (SW480 cells [5]; SW480, 48 h): 1.12%; cell cycle effect (in words) (SW480 cells [5]; SW480, 48 h): S-phase arrest; colonosphere formation (HCT116 cells [8]): inhibits colonosphere formation
2 | C/C(=N\NC(=O)c1ccncc1)c1ccc2ccccc2c1O [MRL16] | > 2 µM | 0.3 µM | 0.2 µM | > 2 µM | 0.3 µM | 0.2 µM | > 10 µM | > 10 µM | 5 µM | > 10 µM | 4 µM | 2.5 µM | 57.3% | 26.9% | 14.5% | 1.11% | 63.7% | 19.9% | potent inhibitor | inhibit colony formation | S (%) (HCT116 cells [4]; HCT116, 48 h): 14.4%; SubG0 Dead Cells (%) (HCT116 cells [4]; HCT116, 48 h): 1.70%; cell cycle effect (in words) (HCT116 cells [4]): induces G2/M arrest; G0/G1 (%) (SW480 cells [5]; SW480, 24 h): 59.8%; G2M/ (%) (SW480 cells [5]; SW480, 24 h): 19.7%; S (%) (SW480 cells [5]; SW480, 24 h): 19.7%; SubG0 Dead Cells (%) (SW480 cells [5]; SW480, 24 h): 0.77%; cell cycle effect (in words) (SW480 cells [5]; SW480, 24 h): induces G1 arrest; G0/G1 (%) (SW480 cells [5]; SW480, 48 h): 58.4%; G2M/ (%) (SW480 cells [5]; SW480, 48 h): 20.1%; S (%) (SW480 cells [5]; SW480, 48 h): 20.0%; SubG0 Dead Cells (%) (SW480 cells [5]; SW480, 48 h): 1.05%; cell cycle effect (in words) (SW480 cells [5]; SW480, 48 h): S-phase arrest; IC50 ([6]; 48 hours, Colon cancer cell lines): < 0.3 µM; colonosphere formation (HCT116 cells [8]): inhibits colonosphere formation; tumor volume [9, 13]: significantly reduced; tumor weight [9, 13]: significantly reduced
3 | CC(C)(C)C1=CC(=NNC(=O)c2cc3ccccc3cc2O)C=C(C(C)(C)C)C1=O [DBQ] | 10 µM | 5 µM | 5 µM | 10 µM | 6 µM | 5 µM | 25 µM | 8 µM | 6 µM | 45 µM | 9 µM | 7 µM |  |  |  |  |  |  | potent inhibitor | inhibit colony formation | IC50 (KU7 bladder cancer cells; KU7, 24 h): 20 µM; IC50 (KU7 bladder cancer cells; KU7, 48 h): 8 µM; IC50 (KU7 bladder cancer cells; KU7, 72 h): 6 µM; IC50 ([10]; 24 h): 50 µM; IC50 ([10]; 48 h): 25 µM; IC50 ([10]; 72 h): 6 µM; cell cycle effect (in words) (HCT116 cells [4]; 5 μM and 10 μM, 24 hours, propidium iodide flow cytometry): induces G2/M arrest; IC50 ([6]; 48 h, all the colon, pancreatic and bladder cancer cell lines): < 10 µM; colony formation (SW480 cells [11]): inhibit colony formation; colony formation (MiaPaCa-2 cells): inhibit colony formation; colony formation (PanC-1 cells): inhibit colony formation; colonosphere formation (cancer stem cells): potent inhibitors of colonosphere formation; tumor volume [9, 14]: significantly reduced; tumor weight [9, 14]: significantly reduced
4 | COc1cc(OC)c2ccc(C=O)c(O)c2c1 [MRL, 1-hydroxy-5,7-dimethoxy-2-naphthalene-carboxaldehyde, reference compound] | > 50 µM | > 50 µM | > 50 µM | > 50 µM | > 50 µM | > 50 µM | > 50 µM | > 50 µM | > 50 µM | > 50 µM | > 50 µM | > 50 µM |  |  |  |  |  |  |  | does not appear to significantly inhibit colony formation | G0/G1 (%) (HCT116 cells [4]; HCT116, Table 3): 45.3%; G2M (%) (HCT116 cells [4]; HCT116, Table 3): 11.4%; S (%) (HCT116 cells [4]; HCT116, Table 3): 11.5%; SubG0 Dead Cells (%) (HCT116 cells [4]; HCT116, Table 3): 29.9%; G0/G1 (%) (SW480 cells [5]; SW480, Table 3): 65.3%; G2M (%) (SW480 cells [5]; SW480, Table 3): 18.1%; S (%) (SW480 cells [5]; SW480, Table 3): 10.2%; SubG0 Dead Cells (%) (SW480 cells [5]; SW480, Table 3): 6.0%; colony formation (SW480 cells [11]): does not appear to significantly inhibit colony formation; action of transcription factor NF-κB [12]: can inhibit
